Measured values taken from patent EP0002400A1, “Thiazole derivatives, their preparation, intermediates and their use in therapeutics” (SYNTHELABO, priority 1977, dated 1979).

test system: pointes ponto-géniculo-occipitales (P.G.O.); assay: Reserpine-induced ponto-geniculo-occipital (PGO) spikes in the curarized cat; assay type: in vivo, chat; conditions: Felis catus, iv, 0.5 h; dose reducing number of PGO spikes by 50%; cat given réserpine 0,75 mg/kg i.p.; increasing i.v. doses every 30 min, 4H30 after réserpine; read-out: P G O DE 50
Text: Par ailleurs in a étudié l'action des drogues sur les pointes pontc-géniculo-occipitales lors du syndrome réser- pinique chez le chat curarisé, afin de mettre en évidence les propriétés antidépressives des composés.
Che= le chat, on enregistre une activité spécifique au niveau du pont, du noyau genouillé latéral et du cortex occipital qui fut appelée pointes ponto-géniculo-occipitales (P.G.O.).
Cette activité spontanée, (pointes P.G.O.), apparaissant lors du =ycle veille-sommeil, peut être induite par la réserpiné, agent pharmacologique diminuant le taux des monoamines cérébrales.
Cette activité électroencéphalographique, modulée par des mécanismes neuronaux sous le contrôle de neurotransmetteurs sy=aptiques, constitue donc un test pharmacologique pour l'étude de l'action centrale des drogues.
Toutes les expériences sont réalisées de manière aiguë sur des chats des deux sexes de 2 à 3 kg.
Avant le débtt de la préparation chirurgicale effectuée scis narcose à l'éther, l'animal reçoit une injection in- trapéritonéale de 0,75 mg/kg i.p. de réserpine.
Le chat est intubé pour permettre une ventilation artificielle.
Un anesthésique local (xylocalne à 2%) est injecté au niveau des points de pression et des incisions.
Des canules sont placées au niveau de la veine fémorale, pour l'injection des produits et l'infusion d'un agent curarisant, la gallamine triethiodide (Flaxédil^R), et de l'artère fémorale pour l'enregistrement de la pression artérielle.
Des électrodes monopolaires sont vissées α- niveau cortical et des électrodes bipolaires coaxiales sont placées sté- réotaxiquement au niveau des noyaux genouillés latéraux.
L'animal curarisé et ventilé artificiellement est maintenu à température constante tout au long de l'expérience.
L'électroencéphalogramme, l'électrocardiogramme et la pression artérielle sont enregistrés à l'aide d'un polygraphe : Grass modèle 79 D.
Des doses croissantes (0,1; 0,3; 1; 3; 10 et 30 mg/kg) des produits à étudier sont injectées par voie intraveineuse toutes les 30 minutes, 4H30 après l'administration de la réserpine.
Le nombre des pointes P.G.O. est comptabilisé automatiquement par périodes de 10 minutes et exprimé en pourcentage par périodes de 30 minutes en prenant la valeur obtenue lors des 30 minutes de contrôle comme référence (100%).
La dose efficace réduisant de 50% (DE 50) le nombre des pointes P.G.O. est calculée à l'aide d'une courbe de regression semi-logarithmique.

SMILES | ED50
Brc1ccccc1OCC1=CSC2=NCCN12 [compound 18] | 0.14 mg/kg
Clc1ccccc1OCC1=CSC2=NCCN12 [compound 11] | 0.24 mg/kg
COc1ccc(OCC2=CSC3=NCCN23)cc1 [compound 6] | 1 mg/kg
COc1ccccc1OCC1=CSC2=NCCN12 [compound 3] | 0.4 mg/kg
C1=C(COc2ccccc2-c2ccccc2)N2CCN=C2S1 [compound 31] | 0.24 mg/kg
CCOc1ccccc1OCC1=CSC2=NCCN12 [compound 24] | 0.5 mg/kg
Cc1ccc(OCC2=CSC3=NCCN23)cc1 [compound 12] | 0.8 mg/kg
Cc1ccccc1OCC1=CSC2=NCCN12 [compound 10, Chlorhydratede (méthyl-2 phénoxy-méthyl)-3 dihydro-5,6 imidazo-[2,1-b] thiazole] | 0.3 mg/kg
Clc1cccc(OCC2=CSC3=NCCN23)c1 [compound 9] | 1 mg/kg
FC(F)(F)c1ccccc1OCC1=CSC2=NCCN12 [compound 21] | 0.2 mg/kg
C1=C(COc2ccccc2)N2CCN=C2S1 [compound 5, Chlorhydrate du phénoxyméthyl-3 dihydro-5,6 imidazo [2,1-b] thiazole] | 1.2 mg/kg
C1=C(CSc2ccccc2)N2CCN=C2S1 [compound 1, Chlorhydratede phénylthiométhyl-3 dihydro-5,6 imidazo [2,1 - b] thiazole] | 0.4 mg/kg
